Data on one molecule can be found in publication PMC11775015, “Parishin B blocking TRIB3-AKT1 interaction inhibits breast cancer lung metastasis” (Frontiers in Pharmacology, 2025).

This test addresses T1, TRIB3 (Tribbles homolog 3) (Homo sapiens, UniProt Q96RU7).
T1 construct: endogenous untagged full-length protein in RIPA lysate of MDA-MB-231 cells, detected by Western blot (anti-TRIB3 Abcam ab75846); NP_066981.2 printed for the homology model
T1 sequence (Q96RU7 1-358): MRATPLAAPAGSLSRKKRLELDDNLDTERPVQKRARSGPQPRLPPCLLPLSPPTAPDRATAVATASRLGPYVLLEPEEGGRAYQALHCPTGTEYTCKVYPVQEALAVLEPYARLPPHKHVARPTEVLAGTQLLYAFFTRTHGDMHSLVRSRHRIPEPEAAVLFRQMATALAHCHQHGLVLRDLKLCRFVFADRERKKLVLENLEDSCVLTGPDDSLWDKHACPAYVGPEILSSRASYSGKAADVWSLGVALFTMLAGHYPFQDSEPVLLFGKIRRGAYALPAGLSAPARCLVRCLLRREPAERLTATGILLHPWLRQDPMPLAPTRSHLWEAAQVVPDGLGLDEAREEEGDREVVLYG
Kind of test: CETSA (cell lysate, Western blot). The format is biochemical. To be noted: 10 uM PB, 1 h, MDA-MB-231 RIPA lysate; 35-60 C for 10 min.

Turning to `O=C(O)CC(O)(CC(=O)OCc1ccc(O[C@@H]2O[C@H](CO)[C@@H](O)[C@H](O)[C@H]2O)cc1)C(=O)OCc1ccc(O[C@@H]2O[C@H](CO)[C@@H](O)[C@H](O)[C@H]2O)cc1` (stereo partly shown) [PB, Parishin B], the “CETSA (cell lysate, Western blot)” value was “PB enhances the thermal stability of TRIB3, resulting in improved thermal stabilization of TRIB3”.
